The values below come from US11802127B2, “3,4-dihydro-2,7-naphthyridine-1,6(2H,7H)-diones as MEK inhibitors” (Pfizer Inc., priority 2021, dated 2023).

Series [1] has as its target T1, BCRP (hBCRP) (Homo sapiens, UniProt Q9UNQ0).
T1 construct: expressed in transfected cells; host or cells: MDCKII (canine kidney) cells, canine P-gp knockout, transfected with BCRP
T1 sequence (Q9UNQ0 1-655): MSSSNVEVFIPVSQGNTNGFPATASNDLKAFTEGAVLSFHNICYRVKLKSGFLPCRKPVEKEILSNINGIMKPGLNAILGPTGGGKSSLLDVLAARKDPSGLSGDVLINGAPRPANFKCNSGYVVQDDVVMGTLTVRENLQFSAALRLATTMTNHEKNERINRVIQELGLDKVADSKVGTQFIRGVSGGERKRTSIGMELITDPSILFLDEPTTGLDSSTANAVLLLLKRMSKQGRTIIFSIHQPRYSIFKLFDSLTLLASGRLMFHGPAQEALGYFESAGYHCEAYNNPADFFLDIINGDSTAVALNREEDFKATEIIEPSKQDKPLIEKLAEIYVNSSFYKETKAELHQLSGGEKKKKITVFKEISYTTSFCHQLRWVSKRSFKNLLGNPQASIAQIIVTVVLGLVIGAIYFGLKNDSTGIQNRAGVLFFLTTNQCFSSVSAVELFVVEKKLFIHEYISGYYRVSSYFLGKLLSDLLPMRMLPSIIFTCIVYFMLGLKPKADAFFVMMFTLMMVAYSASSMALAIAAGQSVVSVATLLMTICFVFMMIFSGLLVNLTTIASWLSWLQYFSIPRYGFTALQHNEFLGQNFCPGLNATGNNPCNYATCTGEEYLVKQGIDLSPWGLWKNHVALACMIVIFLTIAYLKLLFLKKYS
Description: Efflux ratio in BCRP transfected MDCKII canine P-gp knockout cells. In kind it is in vitro ADME. Particulars: Papp(B−A)/Papp(A−B), read-out: Efflux ratio MDCKII-hBCRP knock-in,canine pg-P KO. In outline: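 Test article at 1 μM final (1% organic) in A→B and B→A directions across MDCKII P-gp knockout monolayers expressing BCRP, 2 h at 37° C., triplicate; lucifer yellow checked monolayer integrity. Concentrations by LC-MS/MS against labetalol internal standard; efflux ratio = Papp(B−A)/Papp(A−B).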

The test system of series [2] is ERK1/2(Thr202/Tyr204) phosphorylation (MEK-dependent) in A375 cells. As to the kind of experiment: Cellular Phospho-p44/42 MAPK (Erk1/2) (Thr202/Tyr204) Assay. It counts as cell-based. Particulars: Homo sapiens, A-375, 1-hour incubation, pERK1/2 (Thr202/Tyr204) In-Cell Western normalized to GAPDH. In outline:
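A375 cells exposed 1 h to 10-point 1:3 dilutions (top 20–1 μM, 0.5% DMSO), then fixed and stained for pERK1/2 (Thr202/Tyr204) by In-Cell Western. Signal normalized to GAPDH per well; DMSO and 1 μM reference inhibitor define 0 and 100% inhibition.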

Series [3] deals with T2, P-gp (MDR1) (Homo sapiens, UniProt P08183).
T2 construct: expressed in transfected cells; host or cells: LLC-PK1 (porcine kidney) cells transfected with MDR1
T2 sequence (P08183 whole entry): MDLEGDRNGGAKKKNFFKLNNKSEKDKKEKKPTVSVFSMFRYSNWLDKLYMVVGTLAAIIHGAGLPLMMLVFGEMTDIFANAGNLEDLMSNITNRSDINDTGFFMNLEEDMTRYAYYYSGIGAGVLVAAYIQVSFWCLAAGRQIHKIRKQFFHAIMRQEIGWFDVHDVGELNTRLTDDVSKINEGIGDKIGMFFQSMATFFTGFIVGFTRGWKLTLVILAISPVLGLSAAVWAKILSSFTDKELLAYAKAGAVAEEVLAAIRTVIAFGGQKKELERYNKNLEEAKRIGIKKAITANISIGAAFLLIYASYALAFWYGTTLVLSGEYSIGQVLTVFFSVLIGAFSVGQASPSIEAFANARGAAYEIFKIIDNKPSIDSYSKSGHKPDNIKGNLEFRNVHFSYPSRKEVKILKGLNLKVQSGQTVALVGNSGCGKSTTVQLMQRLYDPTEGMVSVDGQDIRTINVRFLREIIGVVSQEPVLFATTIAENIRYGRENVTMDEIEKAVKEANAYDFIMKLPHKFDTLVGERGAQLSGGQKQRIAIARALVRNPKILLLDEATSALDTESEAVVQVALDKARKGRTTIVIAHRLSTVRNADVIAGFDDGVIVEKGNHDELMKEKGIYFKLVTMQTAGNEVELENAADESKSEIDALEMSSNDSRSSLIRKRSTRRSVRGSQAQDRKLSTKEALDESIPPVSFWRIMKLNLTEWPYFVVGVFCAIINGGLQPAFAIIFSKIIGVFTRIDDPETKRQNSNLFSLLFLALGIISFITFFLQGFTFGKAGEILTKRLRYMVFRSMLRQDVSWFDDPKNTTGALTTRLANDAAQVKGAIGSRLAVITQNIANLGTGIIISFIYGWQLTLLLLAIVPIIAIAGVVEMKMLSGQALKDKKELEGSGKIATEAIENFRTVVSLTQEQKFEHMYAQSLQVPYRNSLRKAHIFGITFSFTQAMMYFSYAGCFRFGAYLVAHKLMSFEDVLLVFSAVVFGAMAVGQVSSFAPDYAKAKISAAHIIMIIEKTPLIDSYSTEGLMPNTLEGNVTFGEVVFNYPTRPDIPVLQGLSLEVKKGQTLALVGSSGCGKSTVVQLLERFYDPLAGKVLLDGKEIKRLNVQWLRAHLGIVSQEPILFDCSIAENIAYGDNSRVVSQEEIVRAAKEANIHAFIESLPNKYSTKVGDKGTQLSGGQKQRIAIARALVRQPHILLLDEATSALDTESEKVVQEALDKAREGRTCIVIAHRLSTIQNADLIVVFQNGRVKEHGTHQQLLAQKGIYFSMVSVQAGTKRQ
Description: Efflux ratio in MDR1 transfected LLC-PK1 cells. In kind it is in vitro ADME. The note with it: pig, Papp(B−A)/Papp(A−B). In outline: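 LLC-PK1 cells transfected with MDR1, test article at 1 μM (1% organic), transport measured A→B and B→A over 2 h at 37° C. Monolayer integrity checked with lucifer yellow, compound quantified by LC-MS/MS. Efflux ratio = Papp(B−A)/Papp(A−B).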

A short description of series [4]: MDR1 LLC-PK1 and BCRP MDCKII Permeability Assay: permeability coefficient (Papp). The note with it: MDCK, test article 1 μM, 37° C. In kind it is in vitro ADME. In outline: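 Bidirectional (A to B, B to A) transport of test article (1 μM, 1% organic) across MDR1-transfected LLC-PK1 or BCRP-transfected MDCKII (canine P-gp knockout) monolayers, 2 h at 37° C., 5% CO2, in triplicate. Lucifer yellow monitored monolayer integrity. Concentrations measured by LC-MS/MS against labetalol internal standard.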

Series [5] can be described thus: Moisture sorption analysis of solid forms. It counts as physicochemical. The note with it: 25° C. As to the method:
Water sorption and desorption studies were conducted on automated vapor sorption analyzer (TA instruments Q5000 SA). The microbalance was calibrated using a 100 mg standard weight. The relative humidity sensor was calibrated at 5.0, 11.3, 32.8, 52.8, 75.3, and 84.3% RH (25° C.) using saturated salt solutions. Approximately 10-20 mg of crystalline monohydrate 8-((2-fluoro-4-(methylthio)phenyl)amino)-2-(2-hydroxyethoxy)-7-methyl-3,4-dihydro-2,7-naphthyrdine-1,6(2H,7H)-dione, Form 3 was placed in the quartz sample holder and dried at ≤3% relative humidity (RH) at 25° C. […] A maximum equilibration time of 120 minutes was used for all steps. The weight gain at each of the % RH steps is based on the weight after the initial drying step at 0% RH. The weight change of the sample was not used to assess equilibrium and instead all steps were programed to be 120 minutes. After data collection was complete, data analysis was performed using commercially available TA universal analysis software and Microsoft Excel.
FIG. 5 depicts the sorption isotherm of crystalline monohydrate 8-((2-fluoro-4-(methylthio)phenyl)amino)-2-(2-hydroxyethoxy)-7-methyl-3,4-dihydro-2,7-naphthyridine-1,6(2H,7H)-dione, Form 3. […] Crystalline anhydrous 8-((2-fluoro-4-(methylthio)phenyl)amino)-2-(2-hydroxyethoxy)-7-methyl-3,4-dihydro-2,7-naphthyridine-1,6(2H,7H)-dione, Form 2 rehydrates to crystalline monohydrate 8-((2-fluoro-4-(methylthio)phenyl)amino)-2-(2-hydroxyethoxy)-7-methyl-3,4-dihydro-2,7-naphthyridine-1,6(2H,7H)-dione, Form 3 at 25% RH at 25° C. as confirmed by PXRD analysis. Based on this analysis, crystalline anhydrous 8-((2-fluoro-4-(methylthio)phenyl)amino)-2-(2-hydroxyethoxy)-7-methyl-3,4-dihydro-2,7-naphthyridine-1,6(2H,7H)-dione, Form 2 is stable below 10% RH at 25° C., and crystalline monohydrate 8-((2-fluoro-4-(methylthio)phenyl)amino)-2-(2-hydroxyethoxy)-7-methyl-3,4-dihydro-2,7-naphthyridine-1,6(2H,7H)-dione, Form 3 is stable above 30% RH at 25° C.

pIC50: −log10 of the molar value.

Usually pIC50 stands for the IC50 on a negative log10 scale, so that one unit is a factor of ten. Higher therefore signals a small IC50. By Papp is commonly meant a coefficient for how fast a substance crosses the barrier. A higher Papp goes with ready permeation. On to `Cn1c(Nc2ccc(OC(F)F)cc2F)c2c(cc1=O)CCNC2=O` [Example 53, 8-((4-(difluoromethoxy)-2-fluorophenyl)amino)-7-methyl-3,4-dihydro-2,7-naphthyridine-1,6(2H,7H)-dione], for which the efflux ratio at 2 h, 1 μM in series [1] was determined as 1.8; in series [3], 1.1. Moreover, the negative-log IC50 (pIC50) in series [2] was 7.52. In series [4], the apparent permeability coefficient (Papp) at 2 h, 1 μM was found to be 36.9 ×10⁻⁶ cm/s.

As to `CSc1ccc(Nc2c3c(c(C)c(=O)n2C)CCNC3=O)c(F)c1` [Example 55, 8-((2-fluoro-4-(methylthio)phenyl)amino)-5,7-dimethyl-3,4-dihydro-2,7-naphthyrdine-1,6(2H,7H)-dione], the efflux ratio at 2 h, 1 μM in series [1] and in series [3] was 1.4 in each case. For the same compound, the pIC50 in series [2] is 7.55. Also, the apparent permeability (Papp) at 2 h, 1 μM in series [4] is 37.4 ×10⁻⁶ cm/s.

With `CCc1ccc(Nc2c3c(c(C)c(=O)n2C)CCNC3=O)c(F)c1` [Example 56, 8-((4-ethyl-2-fluorophenyl)amino)-5,7-dimethyl-3,4-dihydro-2,7-naphthyridine-1,6(2H,7H)-dione], the efflux ratio at 2 h, 1 μM worked out at 1.1 in series [1] and 0.8 in series [3]. In series [2], the negative-log IC50 (pIC50) was 7.25. Further, in series [4], the apparent permeability (Papp) at 2 h, 1 μM turned out to be 32.1 ×10⁻⁶ cm/s.

Turning to `Cc1c2c(c(Nc3ccc(C4CC4)cc3F)n(C)c1=O)C(=O)NCC2` [Example 57, 8-((4-cyclopropyl-2-fluorophenyl)amino)-5,7-dimethyl-3,4-dihydro-2,7-naphthyridine-1,6(2H,7H)-dione], the efflux ratio at 2 h, 1 μM worked out at 1.2 in series [1] and 0.9 in series [3]. The pIC50 in series [2] is 7.03. Besides, the Papp at 2 h, 1 μM in series [4] stood at 31.8 ×10⁻⁶ cm/s.

In the case of `CSc1ccc(Nc2c3c(cc(=O)n2C)CCN(OCCO)C3=O)c(F)c1` [Form 2, 8-((2-fluoro-4-(methylthio)phenyl)amino)-2-(2-hydroxyethoxy)-7-methyl-3,4-dihydro-2,7-naphthyridine-1,6(2H,7H)-dione], the “relative humidity at which the solid form is stable” value in series [5] is “below 10 % RH”. Also, the “relative humidity at which anhydrous Form 2 rehydrates to monohydrate Form 3” value in series [5] (confirmed by PXRD) was 25 % RH.

For `CSc1ccc(Nc2c3c(cc(=O)n2C)CCN(OCCO)C3=O)c(F)c1` [Form 3, 8-((2-fluoro-4-(methylthio)phenyl)amino)-2-(2-hydroxyethoxy)-7-methyl-3,4-dihydro-2,7-naphthyridine-1,6(2H,7H)-dione], the “relative humidity at which the solid form is stable” value in series [5] is given as “above 30 % RH”. Also, the “relative humidity at which monohydrate Form 3 dehydrates to anhydrous Form 2” value in series [5] (confirmed by PXRD) was found to be 15 % RH.
